One experiment has as its target GCN2 kinase (Homo sapiens, UniProt Q9P2K8). As to the kind of experiment: GCN2 enzyme inhibition assay (Transcreener ADP2 fluorescence polarization). Type of experiment: biochemical. The settings on record: Enzyme activity for compounds of Formula IV; Ki(app), 280 μM ATP, 25° C. The gist of the method:
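FP detection of ADP (antibody plus Alexa633 tracer) after a 1 h, 25 °C kinase reaction. Enzyme 4 nM, ATP 280 μM, (RS)7 peptide 200 μM, Tris pH 7.5 buffer with MgCl2 and DTT. Percent inhibition fitted by non-linear tight-binding algorithm for IC50 and Ki(app).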
A general note: Fluorescence polarisation rises when a labelled molecule tumbles more slowly, as on binding a larger partner.

Experiment [1] has as its target intracellular GCN2 (phosphorylation of the GCN2 substrate eIF2α) (Homo sapiens, UniProt Q9P2K8). As to the kind of experiment: GCN2 cellular inhibition assay (AlphaScreen SureFire P-eIF2α Ser51, borrelidin-treated U2OS cells). Type of experiment: cell-based. The following applies: compounds of Formula IV; biomarker assay, phosphorylated eIF2α Ser51 in borrelidin-treated U2OS cells. The method, boiled down:
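Read-out: AlphaScreen SureFire phospho-eIF2α (Ser51) signal in U2OS lysates. Cells get 4-fold compound dilutions (top 40 μM final) plus 10 μM borrelidin, 1 h, 37 °C. Percent inhibition is relative to borrelidin-alone controls.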
In general terms: In Alpha technology, singlet oxygen from a donor bead excites a nearby acceptor bead.

The structures appear in SMILES notation. pIC50, pKi: −log10 of the molar value.

Sequence of GCN2 kinase (Q9P2K8 whole entry): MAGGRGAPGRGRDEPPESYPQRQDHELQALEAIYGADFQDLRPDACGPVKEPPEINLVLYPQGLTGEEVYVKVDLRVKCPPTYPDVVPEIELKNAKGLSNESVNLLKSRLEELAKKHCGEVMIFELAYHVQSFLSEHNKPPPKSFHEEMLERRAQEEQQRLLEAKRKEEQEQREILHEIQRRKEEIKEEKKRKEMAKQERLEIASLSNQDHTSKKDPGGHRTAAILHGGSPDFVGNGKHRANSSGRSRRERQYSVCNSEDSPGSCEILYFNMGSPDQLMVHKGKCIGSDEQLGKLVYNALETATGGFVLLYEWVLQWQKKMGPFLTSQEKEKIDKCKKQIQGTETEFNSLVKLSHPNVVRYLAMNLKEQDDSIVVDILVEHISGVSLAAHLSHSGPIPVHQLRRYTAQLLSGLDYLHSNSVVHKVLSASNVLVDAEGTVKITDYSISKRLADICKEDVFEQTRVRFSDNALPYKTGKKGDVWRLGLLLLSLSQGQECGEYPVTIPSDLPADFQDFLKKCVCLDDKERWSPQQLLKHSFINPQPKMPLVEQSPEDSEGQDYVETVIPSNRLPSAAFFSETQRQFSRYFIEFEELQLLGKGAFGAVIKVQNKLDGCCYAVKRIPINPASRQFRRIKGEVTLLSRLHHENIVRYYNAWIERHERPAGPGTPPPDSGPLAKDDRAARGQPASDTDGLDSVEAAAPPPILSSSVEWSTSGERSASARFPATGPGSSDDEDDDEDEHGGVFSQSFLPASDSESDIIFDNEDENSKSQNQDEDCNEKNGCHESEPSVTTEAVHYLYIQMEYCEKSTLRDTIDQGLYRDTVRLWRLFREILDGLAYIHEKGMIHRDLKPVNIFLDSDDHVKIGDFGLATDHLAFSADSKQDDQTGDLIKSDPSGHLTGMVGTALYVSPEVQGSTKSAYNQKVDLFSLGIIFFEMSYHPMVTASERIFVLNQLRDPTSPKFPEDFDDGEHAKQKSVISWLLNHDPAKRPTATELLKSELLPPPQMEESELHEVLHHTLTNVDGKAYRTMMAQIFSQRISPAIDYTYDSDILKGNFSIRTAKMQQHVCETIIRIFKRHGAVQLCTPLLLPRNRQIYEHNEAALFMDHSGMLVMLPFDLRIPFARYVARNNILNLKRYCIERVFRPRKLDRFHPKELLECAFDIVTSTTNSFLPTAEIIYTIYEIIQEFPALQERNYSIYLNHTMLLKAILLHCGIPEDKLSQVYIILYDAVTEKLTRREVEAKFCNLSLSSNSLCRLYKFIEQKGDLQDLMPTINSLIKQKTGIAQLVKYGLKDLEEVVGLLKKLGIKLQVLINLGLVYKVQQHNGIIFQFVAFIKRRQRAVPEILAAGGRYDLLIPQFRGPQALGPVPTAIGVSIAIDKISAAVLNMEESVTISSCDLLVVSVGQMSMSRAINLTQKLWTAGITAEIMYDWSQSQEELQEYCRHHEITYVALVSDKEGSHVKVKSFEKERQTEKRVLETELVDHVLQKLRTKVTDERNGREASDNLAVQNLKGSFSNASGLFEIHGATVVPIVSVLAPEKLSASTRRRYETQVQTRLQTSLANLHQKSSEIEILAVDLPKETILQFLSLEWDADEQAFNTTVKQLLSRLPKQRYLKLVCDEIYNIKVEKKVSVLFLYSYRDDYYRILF
Sequence of intracellular GCN2 (phosphorylation of the GCN2 substrate eIF2α) (Q9P2K8 whole entry): as above

Consider `FC(F)c1cn2c(-c3nccc(N4CC5CCC(C4)O5)n3)cnc2cn1` [IV-91, 3-(2-(6-(Difluoromethyl)imidazo[1,2-a]pyrazin-3-yl)pyrimidin-4-yl)-8-oxa-3-azabicyclo[3.2.1]octane], for which, at GCN2 kinase, the negative logarithm of the Ki (pKi) (commonly −log10 of the Ki, conventionally taken in molar units) was 6.00 to 7.00. The pIC50 (in general, the negative decadic logarithm of the IC50, by convention in mol/L) in experiment [1] is less than 5.30.

Molecule `OCCc1cc(C2CCCN(c3ccnc(-c4cnc5cnc(C(F)F)cn45)n3)C2)n[nH]1` (centres unmarked) [IV-92, 2-(3-(1-(2-(6-(Difluoromethyl)imidazo[1,2-a]pyrazin-3-yl)pyrimidin-4-yl)piperidin-3-yl)-1H-pyrazol-5-yl)ethan-1-ol] showed a pKi on GCN2 kinase of 6.00 to 7.00. This molecule gave a pIC50 in experiment [1] of less than 5.30.

Molecule `OCc1cc(C2CCCN(c3ccnc(-c4cnc5cnc(C(F)F)cn45)n3)C2)n[nH]1` (centres unmarked) [IV-93, (3-(1-(2-(6-(Difluoromethyl)imidazo[1,2-a]pyrazin-3-yl)pyrimidin-4-yl)piperidin-3-yl)-1H-pyrazol-5-yl)methanol] had a pKi on GCN2 kinase of 6.00 to 7.00. This molecule gave a pIC50 in experiment [1] of less than 5.30.

`NC(=O)c1cc(C2CCCN(c3ccnc(-c4cnc5cnc(C(F)F)cn45)n3)C2)n[nH]1` (centres unmarked) [IV-94, 3-(1-(2-(6-(Difluoromethyl)imidazo[1,2-a]pyrazin-3-yl)pyrimidin-4-yl)piperidin-3-yl)-1H-pyrazole-5-carboxamide] gave a pKi on GCN2 kinase of 6.00 to 7.00. Also, the pIC50 in experiment [1] was less than 5.30.

`CNC(=O)c1cc(C2CCCN(c3ccnc(-c4cnc5cnc(C(F)F)cn45)n3)C2)n[nH]1` (centres unmarked) [IV-95, 3-(1-(2-(6-(Difluoromethyl)imidazo[1,2-a]pyrazin-3-yl)pyrimidin-4-yl)piperidin-3-yl)-N-methyl-1H-pyrazole-5-carboxamide] showed a pKi on GCN2 kinase of 6.00 to 7.00. This molecule gave a pIC50 in experiment [1] of less than 5.30.

At GCN2 kinase, `Cc1n[nH]cc1C1=CCCN(c2ccnc(-c3cnc4cnc(C(F)F)cn34)n2)C1` [IV-96, 6-(Difluoromethyl)-3-(4-(5-(3-methyl-1H-pyrazol-4-yl)-3,6-dihydropyridin-1 (2H)-yl)pyrimidin-2-yl)imidazo[1,2-a]pyrazine] showed a pKi of 7.00 to 8.00. Besides, in experiment [1], the pIC50 was 5.30 to 6.30.

For `Cc1n[nH]cc1C1CCCN(c2ccnc(-c3cnc4cnc(C(F)F)cn34)n2)C1` (centres unmarked) [IV-97, 6-(Difluoromethyl)-3-(4-(3-(3-methyl-1H-pyrazol-4-yl)piperidin-1-yl)pyrimidin-2-yl)imidazo[1,2-a]pyrazine], at GCN2 kinase, the pKi is 7.00 to 8.00. In addition, the pIC50 in experiment [1] was less than 5.30.

In turn, `O=C1CCC2CN(c3ccnc(-c4cnc5cnc(C(F)F)cn45)n3)CCN12` (centres unmarked) [IV-98, 2-(2-(6-(Difluoromethyl)imidazo[1,2-a]pyrazin-3-yl)pyrimidin-4-yl)hexahydropyrrolo[1,2-a]pyrazin-6(2H)-one] had a pKi at GCN2 kinase of 6.00 to 7.00. For the same molecule, the negative logarithm of the IC50 (pIC50) in experiment [1] is less than 5.30.

`O=C1CCCC2CN(c3ccnc(-c4cnc5cnc(C(F)F)cn45)n3)CCN12` (centres unmarked) [IV-99, 2-(2-(6-(Difluoromethyl)imidazo[1,2-a]pyrazin-3-yl)pyrimidin-4-yl)octahydro-6H-pyrido[1,2-a]pyrazin-6-one] had a pKi on GCN2 kinase of 6.00 to 7.00. The same molecule gave a pIC50 in experiment [1] of less than 5.30.

Regarding `O=C1OCC2CN(c3ccnc(-c4cnc5cnc(C(F)F)cn45)n3)CCN12` (centres unmarked) [IV-100, 7-(2-(6-(Difluoromethyl)imidazo[1,2-a]pyrazin-3-yl)pyrimidin-4-yl)hexahydro-3H-oxazolo[3,4-a]pyrazin-3-one], the pKi on GCN2 kinase is 6.00 to 7.00. The molecule also showed a pIC50 in experiment [1] of less than 5.30.

With `NS(=O)(=O)N1CCCN(c2ccnc(-c3cnc4cnc(C(F)F)cn34)n2)CC1` [IV-101, 4-(2-(6-(Difluoromethyl)imidazo[1,2-a]pyrazin-3-yl)pyrimidin-4-yl)-1,4-diazepane-1-sulfonamide], the pKi at GCN2 kinase was 6.00 to 7.00. The molecule also had a pIC50 in experiment [1] of less than 5.30.

On GCN2 kinase, `FC(F)c1cn2c(-c3nccc(N4CCC(C5CCOCC5)C4)n3)cnc2cn1` (centres unmarked) [IV-102, 6-(Difluoromethyl)-3-(4-(3-(tetrahydro-2H-pyran-4-yl)pyrrolidin-1-yl)pyrimidin-2-yl)imidazo[1,2-a]pyrazine] showed a pKi of 6.00 to 7.00. Moreover, the pIC50 in experiment [1] was less than 5.30.

For `FC(F)c1cn2c(-c3nccc(N4CCCCC4)n3)cnc2cn1` [IV-103, 6-(Difluoromethyl)-3-(4-(piperidin-1-yl)pyrimidin-2-yl)imidazo[1,2-a]pyrazine], the pKi at GCN2 kinase was 6.00 to 7.00. Besides, the pIC50 in experiment [1] was less than 5.30.

As to `FC(F)c1cn2c(-c3nccc(N4CCOCC4)n3)cnc2cn1` [IV-104, 4-(2-(6-(Difluoromethyl)imidazo[1,2-a]pyrazin-3-yl)pyrimidin-4-yl)morpholine], the pKi on GCN2 kinase is 6.00 to 7.00. Besides, the pIC50 in experiment [1] was less than 5.30.

`FC(F)c1cn2c(-c3nccc(N4CCCCCC4)n3)cnc2cn1` [IV-105, 3-(4-(Azepan-1-yl)pyrimidin-2-yl)-6-(difluoromethyl)imidazo[1,2-a]pyrazine] gave a pKi at GCN2 kinase of 6.00 to 7.00. In experiment [1], this molecule gave a pIC50 of less than 5.30.

Take `CC1CCN(c2ccnc(-c3cnc4cnc(C(F)F)cn34)n2)CC1C(N)=O` (centres unmarked) [IV-108, 1-(2-(6-(Difluoromethyl)imidazo[1,2-a]pyrazin-3-yl)pyrimidin-4-yl)-4-methylpiperidine-3-carboxamide]: the pKi on GCN2 kinase was 7.00 to 8.00. In addition, in experiment [1], the pIC50 is 5.30 to 6.30.

At GCN2 kinase, `CC1C(C(N)=O)CCCN1c1ccnc(-c2cnc3cnc(C(F)F)cn23)n1` (centres unmarked) [IV-109, 1-(2-(6-(Difluoromethyl)imidazo[1,2-a]pyrazin-3-yl)pyrimidin-4-yl)-2-methylpiperidine-3-carboxamide] had a pKi of 7.00 to 8.00. For the same molecule, the pIC50 in experiment [1] was 5.30 to 6.30.

The molecule `OCC12CC1CN(c1ccnc(-c3cnc4cnc(C(F)F)cn34)n1)C2` (centres unmarked) [IV-111, (3-(2-(6-(Difluoromethyl)imidazo[1,2-a]pyrazin-3-yl)pyrimidin-4-yl)-3-azabicyclo[3.1.0]hexan-1-yl)methanol] gave a pKi on GCN2 kinase of 6.00 to 7.00. In experiment [1], this molecule had a pIC50 of less than 5.30.

Molecule `Cc1cc(C2CCCN(c3ccnc(-c4cnc5cnc(C(F)F)cn45)n3)C2)n[nH]1` (centres unmarked) [IV-112, 6-(Difluoromethyl)-3-(4-(3-(5-methyl-1H-pyrazol-3-yl)piperidin-1-yl)pyrimidin-2-yl)imidazo[1,2-a]pyrazine] gave a pKi at GCN2 kinase of 6.00 to 7.00. This molecule also gave a pIC50 in experiment [1] of less than 5.30.

For `Cn1nc(C2CCCN(c3ccnc(-c4cnc5cnc(C(F)F)cn45)n3)C2)cc1O` (centres unmarked) [IV-113, 3-(1-(2-(6-(Difluoromethyl)imidazo[1,2-a]pyrazin-3-yl)pyrimidin-4-yl)piperidin-3-yl)-1-methyl-1H-pyrazol-5-ol], the pKi on GCN2 kinase was 6.00 to 7.00. In addition, in experiment [1], the pIC50 is less than 5.30.

Regarding `NS(=O)(=O)CC1CCCN(c2ccnc(-c3cnc4cnc(C(F)F)cn34)n2)C1` (centres unmarked) [IV-114, (1-(2-(6-(Difluoromethyl)imidazo[1,2-a]pyrazin-3-yl)pyrimidin-4-yl)piperidin-3-yl)methanesulfonamide], the pKi at GCN2 kinase is 6.00 to 7.00. The pIC50 in experiment [1] is less than 5.30.

`FC(F)c1cn2c(-c3nccc(N4CCc5ccccc5C4)n3)cnc2cn1` [IV-115, 2-(2-(6-(Difluoromethyl)imidazo[1,2-a]pyrazin-3-yl)pyrimidin-4-yl)-1,2,3,4-tetrahydroisoquinoline]: the pKi on GCN2 kinase is 6.00 to 7.00. Also, in experiment [1], the pIC50 is less than 5.30.

`OC1CCC2CN(c3ccnc(-c4cnc5cnc(C(F)F)cn45)n3)CC2C1` (centres unmarked) [IV-116, 2-(2-(6-(Difluoromethyl)imidazo[1,2-a]pyrazin-3-yl)pyrimidin-4-yl)octahydro-1H-isoindol-5-ol] gave a pKi on GCN2 kinase of 6.00 to 7.00. In experiment [1], this molecule had a pIC50 of less than 5.30.

In turn, `NC(=O)C1COCCN(c2ccnc(-c3cnc4cnc(C(F)F)cn34)n2)C1` (centres unmarked) [IV-117, 4-(2-(6-(Difluoromethyl)imidazo[1,2-a]pyrazin-3-yl)pyrimidin-4-yl)-1,4-oxazepane-6-carboxamide] showed a pKi at GCN2 kinase of 6.00 to 7.00. In experiment [1], this molecule showed a pIC50 of less than 5.30.

On GCN2 kinase, `NC1CCCN(c2ccnc(-c3cnc4cnc(C(F)F)cn34)n2)CC1` (centres unmarked) [IV-118, 1-(2-(6-(Difluoromethyl)imidazo[1,2-a]pyrazin-3-yl)pyrimidin-4-yl)azepan-4-amine] had a pKi of 6.00 to 7.00. In experiment [1], this molecule gave a pIC50 of less than 5.30.

With `CC1CN(c2ccnc(-c3cnc4cnc(C(F)F)cn34)n2)CC(C)O1` (centres unmarked) [IV-119, 4-(2-(6-(Difluoromethyl)imidazo[1,2-a]pyrazin-3-yl)pyrimidin-4-yl)-2,6-dimethylmorpholine], at GCN2 kinase, the pKi was 6.00 to 7.00. In experiment [1], this molecule had a pIC50 of less than 5.30.

Consider `OC1CCCN(c2ccnc(-c3cnc4cnc(C(F)F)cn34)n2)C1` (centres unmarked) [IV-120, 1-(2-(6-(Difluoromethyl)imidazo[1,2-a]pyrazin-3-yl)pyrimidin-4-yl)piperidin-3-ol], for which the pKi on GCN2 kinase was 6.00 to 7.00. This molecule also had a pIC50 in experiment [1] of less than 5.30.

As to `OCC1CCCN(c2ccnc(-c3cnc4cnc(C(F)F)cn34)n2)C1` (centres unmarked) [IV-121, (1-(2-(6-(Difluoromethyl)imidazo[1,2-a]pyrazin-3-yl)pyrimidin-4-yl)piperidin-3-yl)methanol], the pKi on GCN2 kinase was 6.00 to 7.00. This molecule gave a pIC50 in experiment [1] of less than 5.30.

On GCN2 kinase, `C[C@@H]1CCC[C@H](C)N1c1ccnc(-c2cnc3cnc(C(F)F)cn23)n1` [IV-122, 6-(Difluoromethyl)-3-(4-((2S,6R)-2,6-dimethylpiperidin-1-yl)pyrimidin-2-yl)imidazo[1,2-a]pyrazine] had a pKi of 6.00 to 7.00. Moreover, in experiment [1], the pIC50 is less than 5.30.

As for `CN1CCN(c2ccnc(-c3cnc4cnc(C(F)F)cn34)n2)CC12CCNCC2` [IV-123, 4-(2-(6-(Difluoromethyl)imidazo[1,2-a]pyrazin-3-yl)pyrimidin-4-yl)-1-methyl-1,4,9-triazaspiro[5.5]undecane], the pKi on GCN2 kinase is 6.00 to 7.00. The same molecule gave a pIC50 in experiment [1] of less than 5.30.

With `CS(=O)(=O)NC1CCCN(c2ccnc(-c3cnc4cnc(C(F)F)cn34)n2)CC1` (centres unmarked) [IV-124], at GCN2 kinase, the pKi is 6.00 to 7.00. This molecule showed a pIC50 in experiment [1] of less than 5.30.
